From patent US20250115598A1 (Anaxis Pharma Pty Ltd, priority 2021, published 2025)

Tests used:
endogenous MLKL in U937 = endogenous MLKL in U937 (Homo sapiens (Human), UniProt Q8NB16); assay: Degradation assay: endogenous MLKL in U937 (western blot); conditions: U937, 24 h incubation, read-out: Degradation of endogenous MLKL in U937 (DC50 cell-based assay)
Procedure, shortened: (§1)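 MDF (seeded the day before) or U937 cells were treated 24 h at 37 °C, 10% CO2 with compound at 10, 2, 0.4, 0.08 and 0.016 μM final. Endogenous MLKL was quantified by western blot (anti-MLKL 3H1), normalized to GAPDH. Percent degradation was taken relative to DMSO control.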

U937 cells = assay: Counter screen: cell viability without the TSQ cocktail (off-target effect); parameters: species or system human; conditions: Homo sapiens, U-937, Table 26, read-out: Off-target effect (IC50 cell-based assay)
Procedure, shortened: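 U937 cells (20000/well, HT-RPMI + 7.4% FBS) treated with compound (10-point 1:3 dilution from 36 μM, 0.3% DMSO) without the TSQ cocktail for 48 h at 37 °C/5% CO2. Viability read as ATP by CellTiter-Glo luminescence, flagging off-target cytotoxicity.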

[1] = tested on: U937 human histiocytic leukemia cell line; assay: Cellular assay: inhibition of TSQ induced necroptosis, CellTitre-Glo viability; conditions: Homo sapiens, U-937; U937 cells, 48 hours, TSQ cocktail, Table 26; read-out: Inhibition of TSQ-induced necroptosis (IC50 cell-based assay)
Protocol: Cellular Assay: Screening Compounds for Inhibition of TSQ Induced Necroptosis, 384 Well Plate Format.
• Cell Line ID: U937 human histiocytic leukemia cell line. • Cell Concentration (cells/well): Final cell density is 20000 cells per well. • Cell growth medium: HT-RPMI medium+7.4% Fetal Bovine Serum (FBS). Cells are cultured in Corning 150 cm^2 tissue culture flasks with vented caps at 37° C./5% CO2. • Incubation: Plates were incubated at 37° C./5% CO2 in a humidified incubator for 48 hours following addition of compounds and death stimuli (TSQ cocktail). • Compound concentration: 36 μM starting concentration, 1:3 dilution, 10 point • DMSO final concentration (% v/v): 0.3%. Compounds in TSQ Cocktail (T: TNF; S: Smac Mimetic; Q: Q-VD-OPh) and their Final Concentrations: • hTNF-Fc (100 ng/ml)—produced by standard procedures as shown in Bossen et al., J. Biol. Chem., 2006, 281(20), 13964-13971. • Compound A (500 nM)—Smac mimetic, Tetralogic and SYNthesis med chem • Q-VD-OPh (10 μM)—MP Biomedicals
The cellular assay was carried out according to the following steps: • 1. Each well was prepared by sequential addition of: • a. DMSO (control; columns 1-2 and 23-24) or compound in DMSO—addition was performed using acoustic transfer of nL volumes of stock compound to give final test concentrations of 36, 12, 4, 1.3, 0.44, 0.148, 0.049, 0.016, 0.005 and 0.002 μM. All wells were backfilled with DMSO to a final total volume in the well of 100 nL. • b. Following compound/DMSO addition in step (a), 40 μL of cell suspension (5×10^5 cells/mL) was added to provide a final cell concentration of 20,000 cells per well, and • c. Following cell addition in step (b), 10 μL of 5×TSQ cocktail (except to positive controls; columns 1 and 23) was added to each well. • 2. After 48 hours, plate was removed from the 37° C. incubator and equilibrated to room temperature for 45 minutes. • 3.15 μL of room temperature CellTitre-Glo2™ (Promega™) was added to each well. • 4. Shook plates for 2 minutes (˜600 rpm) and incubated at room temperature for 15 minutes to allow signal to stabilise. • 5. Read luminescence readout on a plate reader.
Percent viability was calculated for each compound according to equation (2):
• Assay involving the TSQ cocktail (T: TNF; S: Smac mimetic; Q: Q-VD-OPh): TSQ treatment ensures that cells specifically undergo necroptotic cell death. TNF activates the TNF receptor, Smac mimetic directs the signal away from proinflammatory signaling and toward the RIPK1/RIPK3-mediated cell death pathways, and Q-VD-OPh ensures that the apoptotic response is blocked leaving only the programmed necrosis response. The compounds' activity (solution in DMSO) tested in this TSQ-induced assay was evaluated by determining the number of viable cells in culture by measuring the amount of ATP present as measured by CelltiterGlo. • Counter screen: In parallel, all compounds were tested for their ability to affect cell viability. The same U937 cells were treated with compound in DMSO without the TSQ cocktail. This counter screen enabled evaluation of off-target effects. In this case, cell viability was measured by CelltiterGlo.

human MLKL (full length) = human MLKL (full length) (Homo sapiens (Human), UniProt Q8NB16); assay: KINOMEscan binding assay, human MLKL (full length); conditions: hMLKL, Table 25; read-out: MLKL (KD)
Sequence of human MLKL (full length) (Q8NB16 whole entry): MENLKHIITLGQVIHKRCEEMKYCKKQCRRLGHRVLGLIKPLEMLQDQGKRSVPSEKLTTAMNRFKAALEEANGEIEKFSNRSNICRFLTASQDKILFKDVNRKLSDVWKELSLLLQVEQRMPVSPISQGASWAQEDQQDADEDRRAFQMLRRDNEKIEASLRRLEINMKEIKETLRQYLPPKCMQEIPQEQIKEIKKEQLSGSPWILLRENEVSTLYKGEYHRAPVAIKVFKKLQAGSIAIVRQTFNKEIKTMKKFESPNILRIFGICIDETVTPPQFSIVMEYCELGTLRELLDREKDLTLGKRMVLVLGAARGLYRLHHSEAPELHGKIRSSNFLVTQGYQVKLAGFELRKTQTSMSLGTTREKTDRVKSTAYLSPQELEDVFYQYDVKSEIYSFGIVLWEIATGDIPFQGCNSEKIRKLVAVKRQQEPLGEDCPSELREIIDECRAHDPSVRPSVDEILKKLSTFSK
Procedure, shortened: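 Binding constants were derived by fitting qPCR-quantified bead-retained kinase against compound concentration to the Hill equation, slope set at −1. Compound series were 3-fold over 11 points with 1% DMSO; most top concentrations were 30,000 nM. Kinases were T7-phage-tagged or HEK-293-produced with DNA tags.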

endogenous MLKL in MDF = endogenous MLKL in MDF (Mus musculus (Mouse), UniProt Q9D2Y4); assay: Degradation assay: endogenous MLKL in MDF (western blot); conditions: MDF cells, 24 h incubation with compound, MLKL adjusted for loading with GAPDH, normalized to DMSO only control, read-out: Degradation of endogenous MLKL in MDF (DC50 cell-based assay)
Sequence of endogenous MLKL in MDF (Q9D2Y4 whole entry): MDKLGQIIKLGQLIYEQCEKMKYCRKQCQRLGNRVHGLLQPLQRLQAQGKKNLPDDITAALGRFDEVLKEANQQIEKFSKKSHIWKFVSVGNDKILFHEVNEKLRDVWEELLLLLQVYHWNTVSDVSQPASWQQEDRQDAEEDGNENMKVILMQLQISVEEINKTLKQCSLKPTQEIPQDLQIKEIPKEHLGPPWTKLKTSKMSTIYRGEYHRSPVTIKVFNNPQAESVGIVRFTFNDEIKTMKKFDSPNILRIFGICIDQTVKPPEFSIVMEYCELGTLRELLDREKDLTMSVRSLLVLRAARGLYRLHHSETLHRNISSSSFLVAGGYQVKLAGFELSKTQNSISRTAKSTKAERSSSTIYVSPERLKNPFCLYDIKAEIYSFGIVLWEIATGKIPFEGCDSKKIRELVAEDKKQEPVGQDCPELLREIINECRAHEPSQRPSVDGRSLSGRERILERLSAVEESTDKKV
Procedure, shortened: as §1

Sequence of endogenous MLKL in U937 (Q8NB16 whole entry): as the sequence (Q8NB16 whole entry) above

| SMILES | DC50 (endogenous MLKL in U937) | IC50 (U937 cells) | IC50 [1] | Kd (human MLKL (full length)) | DC50 (endogenous MLKL in MDF) |
| --- | --- | --- | --- | --- | --- |
| CCS(=O)(=O)Nc1ccc(-c2n[nH]c3c(-c4cnn(CCCCCCC(=O)N[C@H](C(=O)N5C[C@H](O)C[C@H]5C(=O)NCc5ccc(-c6scnc6C)cc5)C(C)(C)C)c4)cnc(N)c23)cc1OCc1ccc(F)cc1 [Compound 1003, (2S,4R)-1-[(2S)-2-{7-[4-(4-amino-3-{4-ethanesulfonamido-3-[(4-fluorophenyl)methoxy]phenyl}-1H-pyrazolo[4,3-c]pyridin-7-yl)-1H-pyrazol-1-yl]heptanamido}-3,3-dimethylbutanoyl]-4-hydroxy-N-{[4-(4-methyl-1,3-thiazol-5-yl)phenyl]methyl}pyrrolidine-2-carboxamide] | 1 to 10 µM | > 10 µM | > 10 µM | < 0.01 µM |  |
| CCS(=O)(=O)Nc1ccc(-c2n[nH]c3c(-c4cnn(CCOCCOCC(=O)N[C@H](C(=O)N5C[C@H](O)C[C@H]5C(=O)NCc5ccc(-c6scnc6C)cc5)C(C)(C)C)c4)cnc(N)c23)cc1OCc1ccc(F)cc1 [Compound 1005, (2S,4R)-1-[(2S)-2-[2-(2-{2-[4-(4-amino-3-{4-ethanesulfonamido-3-[(4-fluorophenyl)methoxy]phenyl}-1H-pyrazolo[4,3-c]pyridin-7-yl)-1H-pyrazol-1-yl]ethoxy}ethoxy)acetamido]-3,3-dimethylbutanoyl]-4-hydroxy-N-{[4-(4-methyl-1,3-thiazol-5-yl)phenyl]methyl}pyrrolidine-2-carboxamide] | 1 to 10 µM | > 10 µM | 1 to 10 µM | < 0.01 µM |  |
| Cc1ncsc1-c1ccc(CNC(=O)[C@@H]2C[C@@H](O)CN2C(=O)[C@@H](NC(=O)COCCOCCOCCn2cc(-c3cnc(N)c4c(-c5ccc(NS(=O)(=O)C(F)F)c(O[C@@H](C)c6ccc(F)cc6)c5)nn(C)c34)cn2)C(C)(C)C)cc1 [Compound 1009, (2S,4R)-1-[(2S)-2-[2-(2-{2-[2-(4-{4-amino-3-[4-(difluoromethanesulfonamido)-3-[(1S)-1-(4-fluorophenyl)ethoxy]phenyl]-1-methyl-1H-pyrazolo[4,3-c]pyridin-7-yl}-1H-pyrazol-1-yl)ethoxy]ethoxy}ethoxy)acetamido]-3,3-dimethylbutanoyl]-4-hydroxy-N-{[4-(4-methyl-1,3-thiazol-5-yl)phenyl]methyl}pyrrolidine-2-carboxamide] | 1 to 10 µM | 1 to 10 µM | < 1 µM | < 0.01 µM |  |
| Cc1ncsc1-c1ccc(CNC(=O)[C@@H]2C[C@@H](O)CN2C(=O)[C@@H](NC(=O)CCN2CC(n3cc(-c4cnc(N)c5c(-c6ccc(NS(=O)(=O)C(F)F)c(O[C@@H](C)c7ccc(F)cc7)c6)nn(C)c45)cn3)C2)C(C)(C)C)cc1 [Compound 1010, (2S,4R)-1-[(2S)-2-{3-[3-(4-{4-amino-3-[4-(difluoromethanesulfonamido)-3-[(1S)-1-(4-fluorophenyl)ethoxy]phenyl]-1-methyl-1H-pyrazolo[4,3-c]pyridin-7-yl}-1H-pyrazol-1-yl)azetidin-1-yl]propanamido}-3,3-dimethylbutanoyl]-4-hydroxy-N-{[4-(4-methyl-1,3-thiazol-5-yl)phenyl]methyl}pyrrolidine-2-carboxamide] | 1 to 10 µM | > 10 µM | 1 to 10 µM | < 0.01 µM |  |
| Cc1ncsc1-c1ccc(CNC(=O)[C@@H]2C[C@@H](O)CN2C(=O)[C@@H](NC(=O)CCN2CCC(n3cc(-c4cnc(N)c5c(-c6ccc(NS(=O)(=O)C(F)F)c(O[C@@H](C)c7ccc(F)cc7)c6)nn(C)c45)cn3)C2)C(C)(C)C)cc1 (stereo partly drawn) [Compound 1012, (2S,4R)-1-[(2S)-2-{3-[3-(4-{4-amino-3-[4-(difluoromethanesulfonamido)-3-[(1S)-1-(4-fluorophenyl)ethoxy]phenyl]-1-methyl-1H-pyrazolo[4,3-c]pyridin-7-yl}-1H-pyrazol-1-yl)pyrrolidin-1-yl]propanamido}-3,3-dimethylbutanoyl]-4-hydroxy-N-{[4-(4-methyl-1,3-thiazol-5-yl)phenyl]methyl}pyrrolidine-2-carboxamide] | 1 to 10 µM | > 10 µM | 1 to 10 µM | < 0.01 µM |  |
| Cc1ncsc1-c1ccc(CNC(=O)[C@@H]2C[C@@H](O)CN2C(=O)[C@@H](NC(=O)CCN2CCC(n3cc(-c4cnc(N)c5c(-c6ccc(NS(=O)(=O)C(F)F)c(O[C@@H](C)c7ccc(F)cc7)c6)nn(C)c45)cn3)CC2)C(C)(C)C)cc1 [Compound 1017, (2S,4R)-1-[(2S)-2-{3-[4-(4-{4-amino-3-[4-(difluoromethanesulfonamido)-3-[(1S)-1-(4-fluorophenyl)ethoxy]phenyl]-1-methyl-1H-pyrazolo[4,3-c]pyridin-7-yl}-1H-pyrazol-1-yl)piperidin-1-yl]propanamido}-3,3-dimethylbutanoyl]-4-hydroxy-N-{[4-(4-methyl-1,3-thiazol-5-yl)phenyl]methyl}pyrrolidine-2-carboxamide] | 1 to 10 µM | > 10 µM | 1 to 10 µM | < 0.01 µM |  |
| Cc1ncsc1-c1ccc(CNC(=O)[C@@H]2C[C@@H](O)CN2C(=O)[C@@H](NC(=O)CCCCCCn2cc(-c3cnc(N)c4c(-c5ccc(NS(=O)(=O)C(F)F)cc5)nn(C)c34)cn2)C(C)(C)C)cc1 [Compound 1022, (2S,4R)-1-[(2S)-2-[7-(4-{4-amino-3-[4-(difluoromethanesulfonamido)phenyl]-1-methyl-1H-pyrazolo[4,3-c]pyridin-7-yl}-1H-pyrazol-1-yl)heptanamido]-3,3-dimethylbutanoyl]-4-hydroxy-N-{[4-(4-methyl-1,3-thiazol-5-yl)phenyl]methyl}pyrrolidine-2-carboxamide] | < 1 µM | > 10 µM | < 1 µM | < 0.01 µM | < 1 µM |
